Test results from PMC9044951, “Bioinformatic Mining and Structure-Activity Profiling of Baeyer-Villiger Monooxygenases from Mycobacterium tuberculosis” (mSphere, 2022).

Experiments:
[1] = biological target: EthA (Rv3854c) (Mycobacterium tuberculosis, UniProt P9WNF9); type: biochemical
[2] = biological target: Rv0892 (Mycobacterium tuberculosis, UniProt P9WNG1)
[3] = biological target: Rv0565c (Mycobacterium tuberculosis, UniProt O53762)
[4] = system: CCCCCCC(C)=O; experiment: purified protein; conditions: pH 7.5; 25.0 °C
[5] = system: CCCC(=O)CC(=O)OCC; experiment: purified protein; conditions: pH 7.5; 25.0 °C

Sequence of Rv0565c (O53762 entry or part of it): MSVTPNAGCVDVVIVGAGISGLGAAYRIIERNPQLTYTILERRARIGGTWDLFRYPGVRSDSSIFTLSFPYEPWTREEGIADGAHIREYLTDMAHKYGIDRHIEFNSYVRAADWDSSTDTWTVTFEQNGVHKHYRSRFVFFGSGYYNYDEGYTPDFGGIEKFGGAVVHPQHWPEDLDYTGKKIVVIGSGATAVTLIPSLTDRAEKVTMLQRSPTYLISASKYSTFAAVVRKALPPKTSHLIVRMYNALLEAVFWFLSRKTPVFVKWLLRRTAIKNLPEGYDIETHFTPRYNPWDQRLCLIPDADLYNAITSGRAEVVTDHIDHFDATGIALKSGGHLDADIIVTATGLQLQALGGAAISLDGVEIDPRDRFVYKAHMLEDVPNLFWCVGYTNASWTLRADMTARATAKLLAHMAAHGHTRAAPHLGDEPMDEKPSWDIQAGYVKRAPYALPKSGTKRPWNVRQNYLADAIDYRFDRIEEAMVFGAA
Sequence of Rv0892 (P9WNG1 whole entry, looked up): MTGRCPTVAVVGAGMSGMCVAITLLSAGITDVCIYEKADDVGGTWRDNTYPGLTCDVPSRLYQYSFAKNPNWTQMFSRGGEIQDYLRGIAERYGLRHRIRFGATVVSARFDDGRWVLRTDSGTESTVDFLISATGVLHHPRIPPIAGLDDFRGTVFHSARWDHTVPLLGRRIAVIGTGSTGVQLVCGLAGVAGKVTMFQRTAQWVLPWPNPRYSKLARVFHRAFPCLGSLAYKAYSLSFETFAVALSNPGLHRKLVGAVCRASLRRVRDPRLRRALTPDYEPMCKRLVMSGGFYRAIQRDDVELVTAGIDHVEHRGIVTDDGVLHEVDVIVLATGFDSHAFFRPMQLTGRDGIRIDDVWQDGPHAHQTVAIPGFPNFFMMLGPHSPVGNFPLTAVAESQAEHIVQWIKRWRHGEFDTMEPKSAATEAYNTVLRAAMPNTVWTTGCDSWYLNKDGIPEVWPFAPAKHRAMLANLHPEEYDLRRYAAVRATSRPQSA
Sequence of EthA (Rv3854c) (P9WNF9 whole entry, looked up): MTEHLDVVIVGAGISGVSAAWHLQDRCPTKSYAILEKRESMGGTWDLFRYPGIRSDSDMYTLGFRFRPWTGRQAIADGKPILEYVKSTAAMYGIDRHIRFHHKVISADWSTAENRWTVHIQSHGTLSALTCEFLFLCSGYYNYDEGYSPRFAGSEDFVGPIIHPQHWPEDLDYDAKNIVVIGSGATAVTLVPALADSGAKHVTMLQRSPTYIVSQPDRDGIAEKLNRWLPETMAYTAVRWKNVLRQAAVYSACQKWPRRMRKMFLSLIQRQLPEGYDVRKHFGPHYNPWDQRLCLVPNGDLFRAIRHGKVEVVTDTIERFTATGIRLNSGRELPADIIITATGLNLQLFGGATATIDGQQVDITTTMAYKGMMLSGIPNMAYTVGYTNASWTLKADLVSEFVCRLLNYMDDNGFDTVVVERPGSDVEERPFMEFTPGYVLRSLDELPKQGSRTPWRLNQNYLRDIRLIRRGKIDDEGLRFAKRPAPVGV

Compound	activity [1]	specific activity [2]	activity [3]	Km [4] [µM]	Km [5] [µM]
CCCCCCC(C)=O [2-octanone]	Rv0565c and EthA are efficient in oxidizing 2-octanone	Rv0892 exhibits markedly low catalytic rates on the tested substrates	Rv0565c and EthA are efficient in oxidizing 2-octanone		
MymA (Rv3083), MymAcoli (Mycobacterium tuberculosis H37Rv)				400 ± 100	240 ± 40
CCCC(=O)CC(=O)OCC [ethyl 3-oxohexanoate]	with 2-oct and Et3-ox being the most effective substrates	Rv0892 exhibits markedly low catalytic rates on the tested substrates	with 2-oct and Et3-ox being the most effective substrates		
